# From US5053418A, “Antiprotozoal agents” (Burroughs Wellcome Co., priority 1983, dated 1991)
# Tested on: P.yoelii
# Experiment: In vivo effect on P.yoelii in mice (inhibition of parasitaemia)
# Settings: for inhibition in vivo at 3 mg/kg: 3.0 mg/Kg × 7
# Procedure: The naphthoquinone and the pyridinol were each suspended in 0.25% (w/v) celacol in water by milling for 16-24 hours at 26° C. The suspensions were subsequently serially diluted with 0.25% (w/v) celacol in water. At time 0, 0.1 ml of a suspension of 10^7 P.yoelii-parasitised red blood cells/ml of phosphate buffered saline were injected intravenously into 15-20 g mice through a tail vein. Groups of 5 mice per treatment were dosed orally at times 6, 22, 30, 46, 54, 70 and 78 hours with 0.2 ml of the drug suspension. Tail-blood smears were taken at 96 hours, stained with Giemsa and the percentage of red blood cells infected determined and compared to untreated, infected controls. Percent inhibition was correlated with dose to provide ED50 values for each drug alone. In subsequent experiments dilutions of the two drugs, alone and in combination were used, and the percentage inhibition of parasitaemia and ED50 values (of each drug at fixed concentrations of the other) were determined. The results are shown respectively in Tables V and VI. A number of combinations of clopidol (4-pyridinol) and naphthoquinones were assayed and compared with each drug alone for their antimalarial effect against P.yoelii in vivo by the method of Example 4.
# [1] = Plasmodium yoelii, po, 96 h, naphthoquinone alone
structure (smiles),measurement,setting,value
O=C1C(O)=C(C2CCC(c3ccccc3)CC2)C(=O)c2ccccc21 (stereo not drawn),inhibition in vivo at 0.04 mg/kg,"Plasmodium yoelii, po, 96 h, naphthoquinone alone, 0.040 mg/Kg × 7",0%
same,inhibition in vivo at 0.05 mg/kg,"Plasmodium yoelii, po, 96 h, naphthoquinone alone, 0.050 mg/Kg × 7",0%
same,% inhibition of parasitaemia (combination),naphthoquinone 0.040 + clopidol 1.9 mg/Kg × 7,23%
same,% inhibition of parasitaemia (combination),naphthoquinone 0.040 + clopidol 3.75 mg/Kg × 7,39%
same,% inhibition of parasitaemia (combination),naphthoquinone 0.050 + clopidol 1.9 mg/Kg × 7,34%
same,% inhibition of parasitaemia (combination),naphthoquinone 0.050 + clopidol 3.75 mg/Kg × 7,73%
O=C1C(O)=C(C2CCCCC2)C(=O)c2ccccc21,inhibition in vivo at 1.5 mg/kg,"Plasmodium yoelii, po, 96 h, naphthoquinone alone, 1.5 mg/Kg × 7",1%
same,inhibition in vivo at 3 mg/kg,[1],15%
same,% inhibition of parasitaemia (combination),naphthoquinone 1.5 + clopidol 1.9 mg/Kg × 7,47%
same,% inhibition of parasitaemia (combination),naphthoquinone 1.5 + clopidol 3.75 mg/Kg × 7,76%
same,% inhibition of parasitaemia (combination),naphthoquinone 3.0 + clopidol 1.9 mg/Kg × 7,64%
same,% inhibition of parasitaemia (combination),naphthoquinone 3.0 + clopidol 3.75 mg/Kg × 7,97%
CCC1(CC)CCC(C2=C(O)C(=O)c3ccccc3C2=O)CC1,inhibition in vivo at 0.5 mg/kg,"Plasmodium yoelii, po, 96 h, naphthoquinone alone, 0.50 mg/Kg × 7",5%
same,inhibition in vivo at 1 mg/kg,"Plasmodium yoelii, po, 96 h, naphthoquinone alone, 1.0 mg/Kg × 7",4%
same,% inhibition of parasitaemia (combination),naphthoquinone 0.50 + clopidol 1.4 mg/Kg × 7,14%
same,% inhibition of parasitaemia (combination),naphthoquinone 0.50 + clopidol 4.3 mg/Kg × 7,54%
same,% inhibition of parasitaemia (combination),naphthoquinone 1.0 + clopidol 1.4 mg/Kg × 7,68%
same,% inhibition of parasitaemia (combination),naphthoquinone 1.0 + clopidol 4.3 mg/Kg × 7,75%
"O=C1C(O)=C(C2CCC(C3CCCCC3)CC2)C(=O)c2ccccc21 (stereo not drawn) [drawing 17, 2-(4-cyclohexylcyclohexyl)-3-hydroxy-1,4-naphthoquinone]",inhibition in vivo at 0.075 mg/kg,"Plasmodium yoelii, po, 96 h, naphthoquinone alone, 0.075 mg/Kg × 7",17%
same,inhibition in vivo at 0.15 mg/kg,"Plasmodium yoelii, po, 96 h, naphthoquinone alone, 0.15 mg/Kg × 7",16%
same,% inhibition of parasitaemia (combination),naphthoquinone 0.075 + clopidol 1.9 mg/Kg × 7,45%
same,% inhibition of parasitaemia (combination),naphthoquinone 0.075 + clopidol 3.75 mg/Kg × 7,69%
same,% inhibition of parasitaemia (combination),naphthoquinone 0.15 + clopidol 1.9 mg/Kg × 7,80%
same,% inhibition of parasitaemia (combination),naphthoquinone 0.15 + clopidol 3.75 mg/Kg × 7,92%
"CCCCCCCCCC1=C(O)C(=O)c2ccccc2C1=O [(CH2)8 Me, 2-n-nonyl-3-hydroxy-1,4-naphthoquinone]",inhibition in vivo at 3 mg/kg,[1],3%
same,inhibition in vivo at 9 mg/kg,"Plasmodium yoelii, po, 96 h, naphthoquinone alone, 9.0 mg/Kg × 7",69%
same,% inhibition of parasitaemia (combination),naphthoquinone 3.0 + clopidol 1.4 mg/Kg × 7,42%
same,% inhibition of parasitaemia (combination),naphthoquinone 3.0 + clopidol 4.3 mg/Kg × 7,76%
same,% inhibition of parasitaemia (combination),naphthoquinone 9.0 + clopidol 1.4 mg/Kg × 7,88%
same,% inhibition of parasitaemia (combination),naphthoquinone 9.0 + clopidol 4.3 mg/Kg × 7,99%
CC1(C)CCC(C2=C(O)C(=O)c3ccccc3C2=O)CC1,inhibition in vivo at 2.5 mg/kg,"Plasmodium yoelii, po, 96 h, naphthoquinone alone, 2.5 mg/Kg × 7",0%
same,inhibition in vivo at 5 mg/kg,"Plasmodium yoelii, po, 96 h, naphthoquinone alone, 5.0 mg/Kg × 7",0%
same,% inhibition of parasitaemia (combination),naphthoquinone 2.5 + clopidol 1.4 mg/Kg × 7,22%
same,% inhibition of parasitaemia (combination),naphthoquinone 2.5 + clopidol 4.3 mg/Kg × 7,45%
same,% inhibition of parasitaemia (combination),naphthoquinone 5.0 + clopidol 1.4 mg/Kg × 7,46%
same,% inhibition of parasitaemia (combination),naphthoquinone 5.0 + clopidol 4.3 mg/Kg × 7,73%
